Experimental data as given in patent US4673668A, “Aminonaphthacene derivatives” (Sumitomo Pharmaceuticals Company, priority 1982, dated 1987).
Where “and” joins values, the source holds several entries; their conditions need not be identical. Identical values can stand only once. Counter-ions that a name gives are not always drawn. Like-named read-outs stand apart in the source and are kept apart here.

Experiments:
[1] = tested on: P388 mouse leukemia cells; test: Effect against survival times of mouse transplanted with P388 mouse leukemia cells (in vivo test; per os administration); design: species or system mouse (CDF1); conditions: po, once, first day
Protocol: (§1) Tumor: P388 mouse leukemia.
(§2) Animals: CDF1 (BALB/C×DBA/2) mouse .male.5 weeks breeding, one group: 6 mice.
(§3) Number of cells transplanted: 10^6 /mouse, intraperitoneal administration.
(§4) Evaluation: Increase life span (ILS) is calculated on the basis of median survival times (T) and (C) of treated groups and controls, repsctively: [formula] (3) Effect against survival times of mouse transplanted with P388 mouse leukemia cells (in vivo test; intravenous or per os administration)
(§5) Similar to (2), but a test compound administered once, i.e., only the first day, intravenously or orally.

[2] = tested on: P388 mouse leukemia cells; test: Effect against survival time of mouse transplanted with P388 mouse leukemia cells (in vivo test, intraperitoneal administration); design: species or system mouse (CDF1); conditions: intraperitoneally, first and fifth days
From the text: (2) Effect against survival time of mouse transplanted with P388 mouse leukemia cells (in vivo test, intraperitoneal administration)
as §1, §2, §3
Dosage: Test compound administered twice, i.e. the first and fifth days, intraperitoneally. Test compound hardly soluble or insoluble in water is applied in a solution or a suspension form by use of Tween 80.
as §4

[3] = tested on: P388 mouse leukemia cells; test: Effect against P388 mouse leukemia cell (in vitro test); type: cell-based
Protocol: (1) Effect against P388 mouse leukemia cell (in vitro test)
P388 leukemia cells have been subcultured in abdominal cavity of DBA/2 mouse. […] A suspension of 5×10^4 cells/ml containing a test compound is prepared and is cultured in a wet atmosphere containing 5% CO2 at 37° C. for 48 hours.
Number of cells before and after culturing is counted by coulter counter. Proliferative ratio is defined as ratio of the increase in cells after proliferation for 48 hours to an increase in cells cultured in a suspension containing no test compound. Inhibition ratio (IR) is defined as follows: […]
1--(proliferative ratio).
In other words, [formula] where C^treated : number of cells after culturing for 48 hours in the presence of a treated compound
C^non : number of cells after culturing for 48 hours in the absence of a test compound
Co : number of cells when culturing is initiated.

[4] = tested on: P388 mouse leukemia cells; test: Effect against survival times of mouse transplanted with P388 mouse leukemia cells (in vivo test; intravenous); design: species or system mouse (CDF1); conditions: once, first day
Protocol: as §1, §2, §3, §4, §5

[5] = Toxicity test (maximum tolerated dose); conditions: mouse, in vivo; single application; BALB/C mice, ten a group; largest amount where no death is seen
From the text: The largest amount where no death of mice is seen is defined as maximum tolerated dose.

[6] = P388, 1 γ/ml, 48 hours, read-out: Inhibition ratio (IR)
[7] = P388, 10^-1 γ/ml, 48 hours, read-out: Inhibition ratio (IR)
[8] = P388, 10 γ/ml, 48 hours, read-out: Inhibition ratio (IR)
[9] = P388, 48 h, read-out: Inhibition ratio (IR), 1 γ/ml
[10] = P388, 48 h, read-out: Inhibition ratio (IR), 10^-1 γ/ml
[11] = P388, 48 h, read-out: Inhibition ratio (IR), 10 γ/ml

CC[C@@]1(O)C[C@H](O[C@H]2C[C@H](N(C)C)[C@H](O[C@H]3C[C@H](O)[C@H](O[C@H]4CCC(=O)[C@H](C)O4)[C@H](C)O3)[C@H](C)O2)c2c(cc3c(c2O)C(=O)c2c(O)cccc2C3=O)[C@H]1C(=O)OC [ACM-A, AclacinomycinA, reference compound]
ILS ([1]; 10.7 mg/kg): 11%
ILS ([1]; 21.5 mg/kg): 25%
ILS ([1]; 43 mg/kg): 37%

CC(=O)[C@]1(N)Cc2c(O)c3c(c(O)c2[C@@H](O[C@H]2C[C@H](O)[C@H](O)[C@H](C)O2)C1)C(=O)c1ccccc1C3=O [Example 2, d-7α-[(2,6-dideoxy-α-L-lyxo-lexopyranosyl)oxy]-9α-amino-9β-acetyl-7,8,9,10-tetrahydro-6,11-dihydroxy-5,12-naphthacenedione]
Increase life span (ILS) ([2]; 6.25 mg/kg): 135%
inhibition at 1 µg/mL [3, 6]: 84.5%
inhibition at 0.1 µg/mL [3, 7]: 44.1%
inhibition at 10 µg/mL [3, 8]: 89.9%

CC(=O)[C@]1(N)Cc2c(O)c3c(c(O)c2[C@@H](OC2CCCCO2)C1)C(=O)c1ccccc1C3=O (single isomer, unassigned) [Example 10-A, 7-0-tetrahydropyranyl-9α-amino-9β-acetyl-7,8,9,10-tetrahydro-6,7α,11-trihydroxy-5,12-naphthacenedione]
Increase life span (ILS) ([2]; 6.25 mg/kg): 25%
Increase life span (ILS) ([2]; 12.5 mg/kg): 77%
Increase life span (ILS) ([2]; 25 mg/kg): 286%
inhibition at 1 µg/mL [3, 6]: 94.4%
inhibition at 0.1 µg/mL [3, 7]: 94.6%
inhibition at 10 µg/mL [3, 8]: 89%

CC(=O)[C@]1(N)Cc2c(O)c3c(c(O)c2[C@@H](O[C@H]2C[C@H](O)[C@H](O)CO2)C1)C(=O)c1ccccc1C3=O [12 (hydrochloride), d-7α-[(2-deoxy-β-D-erythro-pentapyranosyl)oxy]-9αamino-9β-acetyl-7,8,9,10-tetrahydro-6,11-dihydroxy-5,12-naphthacenedione]
ILS ([4]; 10 mg/kg): 32%
ILS ([4]; 20 mg/kg): 60%
ILS ([4]; 40 mg/kg): -43%
Toxic Death ([4]; 40 mg/kg): 6/6
ILS ([1]; 17.5 mg/kg): 31%
ILS ([1]; 35 mg/kg): 50%
ILS ([1]; 70 mg/kg): 86%
inhibition at 1 µg/mL [3, 9]: 83.8%
inhibition at 0.1 µg/mL [3, 10]: 27.5%
inhibition at 10 µg/mL [3, 11]: 85%
MTD [5]: 32 mg/kg

CC(=O)[C@]1(N)Cc2c(O)c3c(c(O)c2[C@@H](O[C@H]2C[C@H](N)[C@H](O)[C@H](C)O2)C1)C(=O)c1c(O)cccc1C3=O [Example 25 (dihydrochloride), d-7α-[(2,3,6-trideoxy-3-amino-α-L-lyxo-hexopyranosyl)oxy]-9α-amino-9β-acetyl-4,6,11-trihydroxy-7,8,9,10-tetrahydro-5,12-naphthacenedione]
inhibition at 1 µg/mL [3, 6]: 95.7%
inhibition at 0.1 µg/mL [3, 7]: 89%
inhibition at 10 µg/mL [3, 8]: 99.4%

CC(=O)O[C@H]1C[C@H](O[C@H]2C[C@](N)(C(C)=O)Cc3c(O)c4c(c(O)c32)C(=O)c2ccccc2C4=O)OC[C@H]1OC(C)=O [11 (hydrochloride), d-7α-[(2-deoxy-3,4-di-0-acetyl-β-D-erythro-pentapyranosyl)oxy]-9α-amino-9β-acetyl-7,8,9,10-tetrahydro-6,11-dihydroxy-5,12-naphthacenedione]
Increase life span (ILS) ([2]; 6.25 mg/kg): 37%
Increase life span (ILS) ([2]; 12.5 mg/kg): 123%
Increase life span (ILS) ([2]; 25 mg/kg): 280%
ILS ([4]; 10 mg/kg): 35%
ILS ([4]; 20 mg/kg): 67%
ILS ([4]; 40 mg/kg): -45%
Toxic Death ([4]; 40 mg/kg): 6/6
ILS ([1]; 17.5 mg/kg): 40%
ILS ([1]; 35 mg/kg): 63%
ILS ([1]; 70 mg/kg): -42%
Toxic Death ([1]; 70 mg/kg): 6/6
inhibition at 1 µg/mL [3, 6]: 97.9%
inhibition at 0.1 µg/mL [3, 7]: 1.9%
inhibition at 10 µg/mL [3, 8]: 100%
MTD [5]: 40 mg/kg

CC(=O)O[C@@H]1[C@H](C)O[C@@H](O[C@H]2C[C@](N)(C(C)=O)Cc3c(O)c4c(c(O)c32)C(=O)c2ccccc2C4=O)C[C@@H]1OC(C)=O [Example 1, d-7α-[(3,4-di-0-acetyl-2,6-dideoxy-α-L-lyxo-hexopyranosyl)oxy]-9α-amino-9β-acetyl-7,8,9,10-tetrahydro-6,11-dihydroxy-5,12-naphthacenedione]
Increase life span (ILS) ([2]; 6.25 mg/kg): 42%
Increase life span (ILS) ([2]; 12.5 mg/kg): 86%
Increase life span (ILS) ([2]; 25 mg/kg): 152%
inhibition at 1 µg/mL [3, 6]: 84.1%
inhibition at 0.1 µg/mL [3, 7]: 32.4%
inhibition at 10 µg/mL [3, 8]: 82.7%

CC(O)[C@]1(N)Cc2c(O)c3c(c(O)c2[C@@H](OC2CCCCO2)C1)C(=O)c1ccccc1C3=O (stereo partly drawn) [Example 29, 7-0-tetrahydropyranyl-9α-amino-9β-(1-hydroxyethyl)-7,8,9,10-tetrahydro-6,7α,11-trihydroxy-5,12-naphthacenedione]
Increase life span (ILS) ([2]; 3.13 mg/kg): 66%
Increase life span (ILS) ([2]; 6.25 mg/kg): 126%
inhibition at 1 µg/mL [3, 6]: 92.9%
inhibition at 0.1 µg/mL [3, 7]: 93.5%
inhibition at 0.01 µg/mL ([3]; P388, 10^-2 γ/ml, 48 hours, read-out: Inhibition ratio (IR)): 40.1%
inhibition at 10 µg/mL [3, 8]: 94.1%

COc1cccc2c1C(=O)c1c(O)c3c(c(O)c1C2=O)C[C@@](O)(C(=O)CO)C[C@@H]3O[C@H]1C[C@H](N)[C@H](O)[C@H](C)O1 [ADR, Adriamycin, reference compound]
Increase life span (ILS) ([2]; 1 mg/kg, positive control): 58% and 78% and 57%
Increase life span (ILS) ([2]; 2 mg/kg, positive control): 90% and 84%
Increase life span (ILS) ([2]; 4 mg/kg, positive control): 133%
ILS ([4]; 3.75 mg/kg): 21%
ILS ([4]; 7.5 mg/kg): 47%
ILS ([4]; 15 mg/kg): 83%
inhibition at 1 µg/mL [3, 9]: 85.9%
inhibition at 0.1 µg/mL [3, 10]: 85%
inhibition at 0.01 µg/mL ([3]; P388, 48 h, read-out: Inhibition ratio (IR), 10^-2 γ/ml): 69.2%
inhibition at 10 µg/mL [3, 11]: 90.6%
MTD [5]: 12.5 mg/kg
